According to patent publication US11432547B2, “Inhibitors of GRB2-associated binding protein 1 (GAB1) and methods of treating cancer using the same” (Arizona Board of Regents on Behalf of the University of …, priority 2014, dated 2022):
Values joined by “and” are separate entries in the source; they are usually repeats but may differ in a detail not shown here. Equal entries are not always repeated. Where two headings read alike, the source gives them in different places.

Columns and labels:
[1] = test system: GAB1 Y627 phosphorylation; assay: Inhibition of GAB1 Y627 phosphorylation in T47D cells; format: cell-based; details: Homo sapiens, Y627, 20 μM compound 4 hr, HGF stimulated, read-out: % pGAB1 inhibition
Method: For all biological assays, hit compounds were added at 20 μM concentration directly into the culture media of the cells for 4 hr following a 16 hr incubation of T47D cells without FBS. Cells were stimulated with HGF for 20 min at 50 ng/ml. Following this treatment, cells were lysed and equal amounts of total cell lysate were loaded on a pSer^312-IRS-1/Total IRS-1 Meso Scale Discovery plate as described by the manufacturer. The plate was read using a Sector™Imager 2400A instrument (Meso Scale Discovery protein profiling system, Gaithersburg, Md.). For the measurement of GAB1 phosphorylation, T47D cells were treated as for the phosphorylation of IRS1 evaluation. […] Each experiment was performed at least three times.

[2] = test system: T47D breast cancer cell line; assay: Cellular proliferation assay (MTT), T47D; format: cell-based, human; details: for IC50: Homo sapiens, T47D, 96 h, 4 days growth, MTT, IA: Inactive
Method: (§1) Two human breast cancer Cell lines and one normal breast cell line were used for this study: T47D ductal missing highlighted section in original pg. 26Type Culture Collection, Rockville, Md.). T47D and MDA-MB-231 cells were maintained in bulk culture in Dulbecco's modified Eagle medium (DMEM) supplemented with 10% heat-inactivated fetal bovine serum (FBS), 4.5 g/L glucose, 100 U/mL penicillin and […] streptomycin in a 5% CO2 atmosphere. MCF-10A cells were maintained in MEGM with other conditions same as the cancer cell lines. […] Cells were confirmed to be mycoplasma free by testing them with an ELISA kit (Roche-Boehringer Mannheim, Indianapolis, Ind.). The hit compounds were freshly prepared in DMSO at a stock concentration of 10 mM. For the evaluation of cellular proliferation, a standard 96-well micro-cytotoxicity assay was performed as described in reference. Briefly, the assay was set up by plating cells at 5,000-10,000 cells per well (depending on cell doubling time) for a growth period of 4 days. The identified hits were added directly to the media, dissolved in DMSO at various concentrations ranging from 1 to 200 μM. The endpoint was spectrophotometric determination of the reduction of 3-(4,5-dimethylthiazol-2-yl)-2,5-diphenyltetrazolium bromide. All assays were performed in triplicates.

MDA-MB-468 cell line = assay: Cellular proliferation assay, MDA-MB-468; format: cell-based; details: Homo sapiens, printed in MDA-MB-231 column with ** footnote, read-out: IC50 (μM), MDA-MB-468 cell line used
[3] = test system: MDA-MB-231 breast cancer cell line; assay: Cellular proliferation assay (MTT), MDA-MB-231; format: cell-based, human; details: for IC50: Homo sapiens, MDA-MB-231, 96 h, 4 days growth, MTT, IA: Inactive
Method: as §1

IRS1 PH domain = molecular target: T1, IRS1 PH domain (Homo sapiens, UniProt P35568); assay: SPR binding assay, IRS1 PH domain (selectivity); details: derived from experimental KD, RT ln(KD)
T1 sequence (P35568 12-115 limits assumed): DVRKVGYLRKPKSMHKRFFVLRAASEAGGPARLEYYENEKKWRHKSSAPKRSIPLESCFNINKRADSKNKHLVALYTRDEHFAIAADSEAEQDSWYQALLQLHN
Method: The DNA sequences of human GAB1 and IRS1 PH domain (IRS1 is for selectivity evaluation) were cloned into pGEX-4T1 inducible bacterial expression plasmid (GeneStorm, Invitrogen, Carlsbad, Calif.) transformed into BL21 (DE3) E. Coli. Expression and purification of the recombinant proteins were performed. Binding assays were performed using a Biacore 2000 instrument with the Biacore Control Software v3.2 and BIAevaluation v4.1 analysis software (Biacore, Piscataway, N.J.). Briefly, the PH domain GST-fusion proteins were immobilized on a CMS Sensorchip (Biacore BR-1000-12) using Biacore's Amine Coupling Kit (Biacore BR-1000-50) to a level of 10,000 Response units (RUs). Small molecule analytes at concentrations ranging from one tenth to ten times the predicted KD were injected at a high flow rate (30 μL/min). Dimethylsulfoxide (DMSO) concentrations in all samples and running buffer were 1% (v/v) or less. […] The inventors did triplicate SPR assays for each concentration.

GAB1 PH domain = molecular target: T2, GAB1 PH domain (Homo sapiens, UniProt Q13480); assay: SPR binding assay, GAB1 PH domain; details: for Exp. ΔGbind: GAB1, derived from experimental KD or Ki, RT ln(KD)
T2 sequence (Q13480 5-116 limits assumed): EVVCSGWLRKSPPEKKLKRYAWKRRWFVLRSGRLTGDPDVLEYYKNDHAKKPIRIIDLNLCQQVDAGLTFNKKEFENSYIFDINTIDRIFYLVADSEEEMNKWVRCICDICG

GAB2 PH domain = GAB2 PH domain (Homo sapiens, UniProt Q9UQC2); assay: Follow-up experiments, GAB2 PH domain; format: binding
Chain of GAB2 PH domain (Q9UQC2 6-117 limits assumed): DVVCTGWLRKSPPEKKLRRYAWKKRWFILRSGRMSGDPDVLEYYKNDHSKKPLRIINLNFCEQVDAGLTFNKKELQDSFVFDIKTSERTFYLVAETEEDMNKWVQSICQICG

[4] = test system: MCF-10A breast epithelial cell line; assay: Cellular proliferation assay, MCF-10A; format: cell-based, human; details: data not shown
Method: Two human breast cancer Cell lines and one normal breast cell line were used for this study: T47D ductal missing highlighted section in original pg. 26Type Culture Collection, Rockville, Md.). T47D and MDA-MB-231 cells were maintained in bulk culture in Dulbecco's modified Eagle medium (DMEM) supplemented with 10% heat-inactivated fetal bovine serum (FBS), 4.5 g/L glucose, 100 U/mL penicillin and […] streptomycin in a 5% CO2 atmosphere. MCF-10A cells were maintained in MEGM with other conditions same as the cancer cell lines. Cells were passaged using 0.25% trypsin and 0.02% EDTA. Cells were confirmed to be mycoplasma free by testing them with an ELISA kit (Roche-Boehringer Mannheim, Indianapolis, Ind.). The hit compounds were freshly prepared in DMSO at a stock concentration of 10 mM. For the evaluation of cellular proliferation, a standard 96-well micro-cytotoxicity assay was performed as described in reference. Briefly, the assay was set up by plating cells at 5,000-10,000 cells per well (depending on cell doubling time) for a growth period of 4 days. The identified hits were added directly to the media, dissolved in DMSO at various concentrations ranging from 1 to 200 μM. The endpoint was spectrophotometric determination of the reduction of 3-(4,5-dimethylthiazol-2-yl)-2,5-diphenyltetrazolium bromide. All assays were performed in triplicates.

[5] = competitive binding vs PtdIns(3,4,5)P3 liposomes, values with asterisk, read-out: Kn or Ki (μM) GAB1, *Ki measurement

| SMILES | IC50 [2] | IC50 [3] | inhibition at 20 µM [1] | also measured |
| --- | --- | --- | --- | --- |
| Cc1nnc(NS(=O)(=O)c2ccc(NS(=O)(=O)c3ccc4ccccc4c3)cc2)s1 [GAB-014] | 178 ± 3.9 µM | – | 42% | IC50 (MDA-MB-468 cell line): 69.9 ± 0.1 µM |
| CCCCCCCCCCCCCCCCCCOC[C@H](COP(=O)(O)OC1C(O)[C@@H](O)C(O)C[C@H]1O)OC (stereo partly drawn) [DPIEL, reference compound] | – | – | 72% | – |
| Cn1c(Cc2ccsc2)nnc1SCC(=O)Nc1cc(Cl)cc(Cl)c1 [GAB-011] | > 200 µM | > 200 µM | 24% | – |
| CS(=O)(=NS(=O)(=O)c1ccc(-c2ccccn2)s1)c1ccc(Cl)cc1 (stereo not drawn) [GAB-005] | > 200 µM | > 200 µM | 6% | – |
| Cc1cc2ncc(-c3cnc(SCCS(=O)(=O)c4ccc(Cl)cc4)nc3)c(C)n2n1 [GAB-006] | 101 ± 1.8 µM | – | 16% | – |
| CCCCCCCCCCCCc1ccc(S(=O)(=O)Nc2nncs2)cc1 [GAB-020] | – | – | 87% | – |
| CCCCCCCCCCCCc1ccc(S(=O)(=O)Nc2nnc(C(=O)OCC)s2)cc1 [GAB-017] | – | – | – | Exp. ΔGbind (GAB1 PH domain): -8.47 kcal/mol; inhibition at 20 µM ([1]; T47D, 4 h): > 80% |
| CCCCCCCCCCCCc1ccc(S(=O)(=O)Nc2nnc(CC(=O)OCC)s2)cc1 [GAB-016] | – | – | – | Exp. ΔGbind (GAB1 PH domain): -8.31 kcal/mol; inhibition at 20 µM ([1]; T47D, 4 h): > 80%; targeting of GAB2 PH domain (GAB2 PH domain): targets GAB2 PH domain; Exp. ΔGbind (IRS1 PH domain): -9.38 kcal/mol |
| O=C(O)c1ccccc1C(=O)Nc1ccccc1SCCS(=O)(=O)c1ccc(Cl)cc1 [GAB-012] | 119 ± 3.6 µM | > 200 µM | 43% | killing of MDA-MB-231 at 50 μM [3]: did not effectively kill; killing of T47D at 50 μM [2]: did not effectively kill; toxicity to MCF-10A at 100 μM [4]: toxic |
| O=S(=O)(NCc1csc(-c2cccs2)n1)c1ccc(N2CCOCC2)nc1 [GAB-008] | 43.2 ± 3.2 µM | > 200 µM | 8% | – |
| O=c1[nH]nc(SCc2csc(-c3ccccc3)n2)n1Cc1ccco1 [GAB-004] | 19.4 ± 2.9 µM | 66.6 ± 4.6 µM | 81% | Exp. ΔGbind (GAB1 PH domain): -7.78 kcal/mol |
| COc1cc(NS(=O)(=O)c2ccc(NS(=O)(=O)c3c(C)noc3C)cc2)nc(OC)n1 [GAB-013] | > 200 µM | > 200 µM | 27% | killing of MDA-MB-231 at 50 μM [3]: did not effectively kill; killing of T47D at 50 μM [2]: did not effectively kill; toxicity to MCF-10A at 100 μM [4]: toxic |
| Cn1cnc(S(=O)(=O)Nc2ccccc2SCCS(=O)(=O)c2ccc(Cl)cc2)c1 [GAB-002] | 138 ± 6.9 µM | 143 ± 11.6 µM | 32% | – |

Now from value to compound, other results behind:

| IC50 [2] | IC50 [3] | SMILES | inhibition at 20 µM [1] | also measured |
| --- | --- | --- | --- | --- |
| 97.6 ± 6.1 µM | 163 ± 6 µM | Cc1noc(C)c1NC(=O)NCc1csc(-c2cccs2)n1 [GAB-009] | 38% | – |
| 23.8 ± 4.2 µM | 66 ± 4.4 µM | Cc1onc(-c2ccccc2)c1-c1nc(CSc2nc3ccccc3[nH]2)no1 [GAB-010] | 92% | Exp. ΔGbind (IRS1 PH domain): -9.51 kcal/mol |
| 185 ± 2.5 µM | – | CCCCCCCCCCCCc1ccc(S(=O)(=O)Nc2nnc(S(N)(=O)=O)s2)cc1 [GAB-018] | – | Ki (GAB1 PH domain; [5]): 36.6 ± 5 µM; inhibition at 20 µM ([1]; T47D, 4 h): 71%; killing of MDA-MB-231 at 50 μM [3]: did not effectively kill; killing of T47D at 50 μM [2]: did not effectively kill |
| 23.7 ± 2.7 µM | 40.3 ± 1.3 µM | O=S(=O)(NCc1csc2ccc(Cl)cc12)c1cc(S(=O)(=O)c2ccccc2)cs1 [GAB-001] | 55% | Exp. ΔGbind (GAB1 PH domain): -6.91 kcal/mol; Ki (GAB1 PH domain; [5]): 9.4 µM and 9.38 µM |
| 125 ± 5.4 µM | – | CCCCCCCCCCCCc1ccc(S(=O)(=O)Nc2nnc(CC(=O)O)s2)cc1 [GAB-015] | – | Ki (GAB1 PH domain; [5]): 13.1 ± 1.5 µM; inhibition at 20 µM ([1]; T47D, 4 h): 77% |
| 13.9 ± 0.6 µM | 85.2 ± 7.2 µM | Cc1nc(-c2cnc(S(=O)(=O)N3CCN(C4c5ccccc5-c5ccccc54)CC3)s2)cs1 [GAB-003] | 14% | – |
| 20.1 ± 4.3 µM | 4.6 ± 0.7 µM | CS(=O)(=O)CCSc1ncccc1C(=O)Sc1ccc(Cl)cc1Cl [GAB-007] | 53% | Exp. ΔGbind (GAB1 PH domain): -6.01 kcal/mol; Ki (GAB1 PH domain; SPR direct binding, values without asterisk, NB: No Binding, read-out: Kn or Ki (μM) GAB1): 42.3 ± 8.9 µM; Exp. ΔGbind (IRS1 PH domain): -7.93 kcal/mol |
| 39.4 ± 6.2 µM | – | CCc1ccc(C(=O)OC)cc1CSc1nnc(-c2ccc(C(F)(F)F)cc2)n1Cc1ccoc1 [GAB-019] | 91% | – |
